Data on seven compounds can be found in patent US10202372B2, “Trisubstituted pyrido[2,3-D]pyrimidines, methods for preparing same and therapeutic uses thereof” (CENTRE NATIONAL DE LA RECHERCHE SCIENTIFIQUE (C.N.R.S), priority 2012, dated 2019).

SMILES strings stand for the structures. pIC50: −log10 of the molar value. Counter-ions that a name gives are not always drawn.

Assay [1] concerns NCl. Description: Toxicity test on cells, NCl. The class given is cell-based. The conditions noted are these: 48 hours of treatment, Hoechst nuclei staining. The protocol:
(§1) The compounds according to the invention were also tested on the cell lines HuH7, CaCo-2, HCT116, PC3, NCl, HacaT and Fibroblasts.
(§2) Operating Procedure: The cells were cultivated according to the ECACC recommendations. The toxicity test of the compounds on these cells was conducted as follows: 4×10^3 cells/well were sown in 96 wells. 24 hours after sowing the cells, the cells were exposed to increased concentrations of the compounds (0.1 μM-0.3 μM-0.9 μM-2.7 μM-8.3 μM-25 μM). After 48 hours of treatment, the cells were washed in PBS and bound in a cold ethanol/acetic acid (90/5) mixture for 20 minutes. Next, the nuclei were coloured with […] (Sigma). The acquisition of images and the analysis was carried out by means of a reader Cellomics ArrayScan VTI/HCS (Thermo Scientific).

Assay [2] relates to HacaT. Description: Toxicity test on cells, HacaT. The conditions noted are these: Homo sapiens, 48 hours of treatment, Hoechst nuclei staining. The class given is cell-based. As to the method: as §1, §2
In assay [3] the test system is PC3. Description: Toxicity test on cells, PC3. It is filed as cell-based. The conditions noted are these: Homo sapiens, PC-3; 48 hours of treatment, Hoechst nuclei staining. As to the method:
as §1, §2

The subject of assay [4] is HCT116. Description: Toxicity test on cells, HCT116. It is filed as cell-based. To be noted: Homo sapiens, HCT-116; 48 hours of treatment, Hoechst nuclei staining. As to the method: as §1, §2
Assay [5] deals with HUH7. Description: Toxicity test on cells, HUH7. The class given is cell-based. To be noted: Homo sapiens, Huh-7; 48 hours of treatment, Hoechst nuclei staining. The protocol:
as §1, §2

For assay [6], the system named is MDA. Description: Toxicity test on cells, MDA. The conditions noted are these: 48 hours of treatment, Hoechst nuclei staining. It is filed as cell-based. The protocol:
[The procedure below names another cell line; the source lists this cell line under the same test.] as §1, §2

The subject of assay [7] is CaCo2. Description: Toxicity test on cells, CaCo2. It is filed as cell-based. The conditions noted are these: Homo sapiens, Caco-2; 48 hours of treatment, Hoechst nuclei staining. As to the method:
as §1, §2

Assay [8] deals with Fibroblasts. Description: Toxicity test on cells, Fibroblasts. It is filed as cell-based. The conditions noted are these: Fibroblast; 48 hours of treatment, Hoechst nuclei staining. The protocol: as §1, §2
The target in assay [9] is PI3Kα (Homo sapiens, UniProt P42336). Description: PI3Kα kinase activity, Adapta TR-FRET ADP detection. The class given is biochemical. The conditions noted are these: purified p110α/p85α heterodimer, triplicate; read-out: Kinases IC50 PI3Kα. The protocol:
(§3) The activity of the PI3Kα kinase was evaluated by using a purified heterodimer (reference: PV4788 from Invitrogen) consisting of the α catalytic p110 subunit (PIK3CA) and the α regulation p85 subunit (PIK3R1). The assay of the kinase with the kit Adapta™ (reference: PV5099 from Invitrogen) is an enzymatic test based on the detection of ADP, produced during the reaction, by the fluorescence technique TR-FRET. It took place in a 384-well plate and was able to be divided into two phases: an enzymatic reaction phase, and a phase for detecting the ADP level.
(§4) During the enzymatic reaction phase, the following components were mixed in 10 μL of a same well: 2.5 μL of each dilution in series of inhibitors taken up in DMSO and then diluted to 1/25 in the reaction buffer (250 mM HEPES pH 7.5, 500 mM NaCl, 0.15 CHAPS, 5 mM EGTA, 15 mM MgCl2 and 1 mM DTT, ref.: PV5101 from Invitrogen), 2.5 μL of a solution containing PI3K at the optimum concentration (concentration defined according to the optimization step described in the operating procedure of the kit) diluted in the same reaction buffer, and finally, 5 μL of a solution containing 20 μM ATP and 100 μM PIP2 diluted in the reaction buffer. For each inhibitor concentration, the reaction was conducted in three copies (triplicate). The reaction was then incubated for 60 min at room temperature without any stirring in darkness.
(§5) During the phase for detecting ADP, 5 μL of a detection solution containing an anti-ADP antibody labeled with europium (6 nM), a tracer of the Alexa Fluor® 647 type coupled with ADP (30 nM), and EDTA (30 mM, for stopping the kinase reaction) were diluted in the dilution buffer (reference: PV3574 from Invitrogen). After 30 min of incubation at room temperature with stirring (40 rpm) in darkness, the 384-well plates were read in a plate reader Victor V configured for HTRF (Perkin Elmer). The excitation was produced at 340 nm and emission was measured at 665 nm and 615 nm. The inhibition curve was then plotted according to the emission ratio at 665 nm/615 nm versus the inhibitor concentration.
(§6) In order to obtain a linear response of the signal, a titration curve ATP-ADP, corresponding to the conversion % of ATP into ADP, was achieved by varying both of these species while keeping [ADP]+[ATP]=10 μM. The emission ratio at 665 nm/615 nm resulting from this (Y) was plotted versus the conversion % of ATP into ADP (X). The data of this curve were formatted according to a model with three hyperbolic parameters from the following equation: Y=C+A*(1−(X/(B+X))).
(§7) The software package GraphPad™ Prism® thus allows calculation of the parameters A, B and C. A conversion % corresponds to an emission ratio 665 nm/615 nm, this percentage is calculated by using the following equation: Conversion %=B*(C+A−Ratio)/(Ratio−C)
(§8) The three parameters A, B and C having been defined by the preceding equation, the conversion % was therefore able to be plotted versus the inhibitor concentration. The amount of inhibitor required for causing a 50% variation in the % conversion of ATP into ADP corresponds to the IC50 value of the inhibitor.
(TR-FRET usually uses a lanthanide donor and a delayed reading to cut background.)

Assay [10] has as its target PI3Kδ (Homo sapiens, UniProt O00329). Description: PI3Kδ kinase activity, Adapta TR-FRET ADP detection. It is filed as biochemical. To be noted: purified p110δ/p85α heterodimer; read-out: Kinases IC50 PI3Kδ. The protocol: as §3, §4, §5, §6, §7, §8
(§9) The activity of the kinase PI3Kγγ (PV4786 from Invitrogen) was evaluated on the p110γγ catalytic subunit (PI3KCG) and that of the kinase PI3Kδδ on the purified heterodimer (PV5273) respectively consisting of the δδ catalytic p110 subunit (PIK3CD) and the α regulation p85 subunit (PIK3R1) by following the same procedure.

Assay [11] concerns the target PI3Kγ (Homo sapiens, UniProt P48736). Description: PI3Kγ kinase activity, Adapta TR-FRET ADP detection. It is filed as biochemical. To be noted: p110γ catalytic subunit; read-out: Kinases IC50 PI3Kγ. The protocol:
as §3, §4, §5, §6, §7, §8, §9

For assay [12], the target named is mTOR (Homo sapiens, UniProt P42345). Description: mTOR kinase activity, LANCE Ultra TR-FRET. The class given is biochemical. To be noted: truncated mTOR protein, triplicate; read-out: Kinases IC50 mTOR. The protocol:
The activity of the mTOR kinase was evaluated by using a purified truncated protein of the amino acids 1-1359 (reference: PV4753 from Invitrogen). The assay of the activity of the enzyme was carried out with the kit LANCE® Ultra which is an enzymatic test based on the detection of a phosphorylated peptide produced during the reaction, by using the fluorescence technique TR-FRET. It took place in a 384-well plate and was able to be divided into two phases: an enzymatic reaction phase and a phase for detecting the phosphorylated peptide.
During the enzymatic reaction phase, the following components were mixed in 10 μL of a same well: 5 μL of each dilution in series of inhibitors taken up in DMSO and then diluted to 1/25 in the reaction buffer (50 mM HEPES pH 7.5, 0.1% Tween-20, 1 mM EGTA, 10 mM MnCl2, 3 mM MgCl2 and 2 mM of DTT), 2.5 μL of a solution containing mTOR at the optimum concentration (concentration defined according to the optimization step described in the operating procedure of the kit) diluted in the same reaction buffer, and finally 2.5 μL of a solution containing 40 μM of ATP and 200 μM non-phosphorylated peptide diluted in the reaction buffer. For each inhibitor concentration, the reaction was conducted in three copies (triplicate). The reaction was then incubated for 120 min at room temperature without any stirring in darkness.
During the phase for detecting the phosphorylated peptide, 5 μL of an EDTA solution (32 mM) diluted in the dilution buffer (ref.: CR97-100 from Perkin Elmer) were injected into each well. After 5 min of incubation with stirring, 5 μL of a phosphorylated anti-peptide antibody solution labeled with europium (8 nM) and diluted in the same dilution buffer was added into each well. After 60 min of incubation at room temperature with stirring (40 rpm) in darkness, the 384-well plates were read in a plate reader Victor V configured for HTRF (Perkin Elmer). […] The inhibition curve was then plotted according to the fluorescence intensity value at 665 nm versus the inhibitor concentration.
The amount of inhibitor required for causing a 50% variation in the intensity of the signal corresponds to the IC50 value of the inhibitor.

Sequence of mTOR (P42345 1360-2549): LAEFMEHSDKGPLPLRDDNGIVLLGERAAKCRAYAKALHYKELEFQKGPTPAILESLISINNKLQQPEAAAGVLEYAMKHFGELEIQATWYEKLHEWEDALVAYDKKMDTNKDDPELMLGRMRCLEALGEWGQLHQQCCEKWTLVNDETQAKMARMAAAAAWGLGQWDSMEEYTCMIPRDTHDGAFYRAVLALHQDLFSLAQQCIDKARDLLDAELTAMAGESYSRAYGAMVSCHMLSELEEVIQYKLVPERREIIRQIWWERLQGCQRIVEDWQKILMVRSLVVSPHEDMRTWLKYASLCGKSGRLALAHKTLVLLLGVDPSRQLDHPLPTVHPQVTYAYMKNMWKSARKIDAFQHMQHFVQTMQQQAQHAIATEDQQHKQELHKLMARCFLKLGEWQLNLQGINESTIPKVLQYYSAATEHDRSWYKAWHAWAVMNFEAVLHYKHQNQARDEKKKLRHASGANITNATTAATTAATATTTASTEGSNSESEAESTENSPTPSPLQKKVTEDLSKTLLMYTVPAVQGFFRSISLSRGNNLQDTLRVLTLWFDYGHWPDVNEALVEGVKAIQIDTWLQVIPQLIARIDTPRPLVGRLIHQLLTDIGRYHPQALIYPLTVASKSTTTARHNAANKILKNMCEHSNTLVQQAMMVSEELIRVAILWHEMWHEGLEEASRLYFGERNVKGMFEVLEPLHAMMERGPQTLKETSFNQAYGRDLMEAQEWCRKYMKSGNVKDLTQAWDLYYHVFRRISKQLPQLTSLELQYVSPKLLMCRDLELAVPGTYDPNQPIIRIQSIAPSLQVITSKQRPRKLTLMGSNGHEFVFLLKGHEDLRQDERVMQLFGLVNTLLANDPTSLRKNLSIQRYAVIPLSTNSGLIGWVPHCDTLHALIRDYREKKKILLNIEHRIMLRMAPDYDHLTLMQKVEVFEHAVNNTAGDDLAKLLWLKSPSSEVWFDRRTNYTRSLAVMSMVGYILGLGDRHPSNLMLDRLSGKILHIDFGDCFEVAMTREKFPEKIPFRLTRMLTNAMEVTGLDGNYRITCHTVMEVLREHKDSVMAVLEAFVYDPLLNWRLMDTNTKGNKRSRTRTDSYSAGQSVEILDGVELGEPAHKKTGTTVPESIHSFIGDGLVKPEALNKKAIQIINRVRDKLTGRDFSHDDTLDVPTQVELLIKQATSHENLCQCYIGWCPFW
Sequence of PI3Kα (P42336 whole entry): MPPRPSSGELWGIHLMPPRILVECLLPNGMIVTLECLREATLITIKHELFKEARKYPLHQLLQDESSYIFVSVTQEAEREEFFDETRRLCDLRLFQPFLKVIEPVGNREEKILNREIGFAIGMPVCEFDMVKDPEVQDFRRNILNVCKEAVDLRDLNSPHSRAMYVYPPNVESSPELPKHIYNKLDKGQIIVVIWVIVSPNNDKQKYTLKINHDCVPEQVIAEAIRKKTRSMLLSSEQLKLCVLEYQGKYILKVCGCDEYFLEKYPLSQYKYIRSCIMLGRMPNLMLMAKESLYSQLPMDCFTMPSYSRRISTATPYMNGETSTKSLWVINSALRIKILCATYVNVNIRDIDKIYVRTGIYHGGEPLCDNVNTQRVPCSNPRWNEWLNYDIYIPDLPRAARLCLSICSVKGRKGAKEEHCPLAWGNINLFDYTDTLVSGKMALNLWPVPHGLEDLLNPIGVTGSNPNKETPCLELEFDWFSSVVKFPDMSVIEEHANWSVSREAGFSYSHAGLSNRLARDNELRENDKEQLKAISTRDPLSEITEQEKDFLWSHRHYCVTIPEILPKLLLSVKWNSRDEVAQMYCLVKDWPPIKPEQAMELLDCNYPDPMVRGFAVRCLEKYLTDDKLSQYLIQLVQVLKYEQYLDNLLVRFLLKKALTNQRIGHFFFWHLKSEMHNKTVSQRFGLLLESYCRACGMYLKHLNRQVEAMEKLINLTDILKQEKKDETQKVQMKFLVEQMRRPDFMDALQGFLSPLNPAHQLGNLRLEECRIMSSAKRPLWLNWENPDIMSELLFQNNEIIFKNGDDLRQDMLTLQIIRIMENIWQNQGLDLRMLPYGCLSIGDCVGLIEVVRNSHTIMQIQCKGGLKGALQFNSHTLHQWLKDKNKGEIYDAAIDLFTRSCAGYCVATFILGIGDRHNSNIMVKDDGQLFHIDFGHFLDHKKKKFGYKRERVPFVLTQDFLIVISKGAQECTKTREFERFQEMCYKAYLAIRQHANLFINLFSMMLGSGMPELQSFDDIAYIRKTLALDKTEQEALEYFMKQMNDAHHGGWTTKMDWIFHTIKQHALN
Sequence of PI3Kα (P27986 whole entry partner): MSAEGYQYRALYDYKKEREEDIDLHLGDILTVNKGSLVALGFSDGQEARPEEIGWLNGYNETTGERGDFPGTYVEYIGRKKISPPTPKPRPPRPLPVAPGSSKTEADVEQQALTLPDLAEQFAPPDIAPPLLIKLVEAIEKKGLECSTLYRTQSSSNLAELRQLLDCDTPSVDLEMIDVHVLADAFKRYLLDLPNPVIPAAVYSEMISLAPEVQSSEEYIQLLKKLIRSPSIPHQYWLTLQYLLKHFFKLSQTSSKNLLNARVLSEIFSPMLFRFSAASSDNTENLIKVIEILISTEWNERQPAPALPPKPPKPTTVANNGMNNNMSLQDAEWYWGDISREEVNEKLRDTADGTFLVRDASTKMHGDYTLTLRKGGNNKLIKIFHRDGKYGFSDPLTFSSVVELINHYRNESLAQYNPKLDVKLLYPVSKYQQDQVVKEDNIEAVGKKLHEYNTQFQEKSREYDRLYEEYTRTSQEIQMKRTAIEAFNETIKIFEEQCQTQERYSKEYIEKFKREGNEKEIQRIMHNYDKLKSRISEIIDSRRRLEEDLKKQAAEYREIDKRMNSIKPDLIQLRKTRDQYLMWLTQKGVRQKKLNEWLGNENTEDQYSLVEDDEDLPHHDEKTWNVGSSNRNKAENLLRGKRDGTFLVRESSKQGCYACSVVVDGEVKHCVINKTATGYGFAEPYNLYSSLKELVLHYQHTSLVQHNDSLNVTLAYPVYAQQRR
Sequence of PI3Kδ (O00329 whole entry): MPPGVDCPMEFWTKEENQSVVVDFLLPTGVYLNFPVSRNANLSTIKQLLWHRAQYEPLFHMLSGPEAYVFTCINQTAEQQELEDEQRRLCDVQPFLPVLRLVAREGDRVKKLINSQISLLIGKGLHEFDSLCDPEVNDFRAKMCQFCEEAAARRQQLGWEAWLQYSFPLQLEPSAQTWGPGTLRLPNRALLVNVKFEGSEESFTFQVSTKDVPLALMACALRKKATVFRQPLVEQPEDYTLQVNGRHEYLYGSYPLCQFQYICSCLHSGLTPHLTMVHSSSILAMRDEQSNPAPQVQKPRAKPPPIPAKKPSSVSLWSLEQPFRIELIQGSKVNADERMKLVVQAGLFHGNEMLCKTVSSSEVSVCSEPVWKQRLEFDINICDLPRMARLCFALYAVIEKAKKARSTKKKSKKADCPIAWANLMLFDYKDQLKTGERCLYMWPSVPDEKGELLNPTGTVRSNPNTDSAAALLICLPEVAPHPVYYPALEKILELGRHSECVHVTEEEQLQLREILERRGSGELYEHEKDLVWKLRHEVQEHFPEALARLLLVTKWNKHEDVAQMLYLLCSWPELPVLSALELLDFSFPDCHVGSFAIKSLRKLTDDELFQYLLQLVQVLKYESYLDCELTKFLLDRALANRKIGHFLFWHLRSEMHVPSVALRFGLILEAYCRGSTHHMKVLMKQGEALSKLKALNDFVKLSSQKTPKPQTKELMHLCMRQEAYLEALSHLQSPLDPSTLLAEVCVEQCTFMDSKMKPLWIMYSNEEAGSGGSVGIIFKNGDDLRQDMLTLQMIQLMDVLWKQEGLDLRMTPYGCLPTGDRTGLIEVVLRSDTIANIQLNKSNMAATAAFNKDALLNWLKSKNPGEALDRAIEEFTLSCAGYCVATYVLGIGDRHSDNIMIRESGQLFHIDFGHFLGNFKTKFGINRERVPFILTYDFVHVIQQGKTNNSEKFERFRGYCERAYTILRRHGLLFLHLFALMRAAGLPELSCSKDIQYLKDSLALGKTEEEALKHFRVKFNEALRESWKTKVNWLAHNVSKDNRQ
Sequence of PI3Kδ (P27986 whole entry partner): as the sequence (P27986 whole entry partner) above

Regarding `Oc1cccc(-c2nc(N3CCOCC3)c3ncc(CN4CCN(C5CCCCC5)CC4)cc3n2)c1` [Compound 56, 3-{7-[(4-cyclohexylpiperazin-1-yl)methyl]-4-(morpholin-4-yl)pyrido[3,2-d]pyrimidin-2yl}phenol], the pIC50 (usually −log10 of the IC50, conventionally taken in molar units) in assay [1] was 4.96; in assay [2], 5.10; in [3], 5.10; in assay [4], 5.15; in assay [5] it was 5.22; in assay [6], 4.92. The pIC50 is 5.22 in assay [7], 5.00 in assay [8] and 7.96 in [9].
`Oc1cccc(-c2nc(N3CCOCC3)c3ncc(CNC4CC4)cc3n2)c1` [Compound 27, 3-(7-((cyclopropylamino)methyl)-4-morpholinopyrido[3,2-d]pyrimidin-2-yl)phenolhydrochloride]: the pIC50 in [1] was less than 4.60; in [2], less than 4.60; in assay [10], 7.96; in assay [3] it was 5.70; in assay [11], 6.37; in assay [4] it was 5.30. Moreover, the pIC50 in assay [5] was less than 4.60; in assay [6] it was less than 4.60; in assay [7] it was 5.52; in assay [8] it was less than 4.60; in [12], 6.60; in assay [9], 6.96.
As for `CN1CCN(Cc2cnc3c(N4CCOCC4)nc(-c4cccc(O)c4)nc3c2)CC1` [Compound 30, 3-(7-((4-methylpiperazin-1-yl)methyl)-4-morpholinopyrido[3,2-d]pyrimidin-2-yl)phenol hydrochloride], the pIC50 in [1] is 4.82; in [2], 5.10; in assay [10], 6.80; in assay [3], 5.15; in assay [11], 6.61; in assay [4], 5.00. Moreover, the pIC50 was 5.30 in assay [5]; 4.70 in assay [6]; 5.70 in assay [7]; less than 4.60 in assay [8]; 5.66 in [12]; 6.41 in assay [9].
Turning to `Oc1cccc(-c2nc(N3CCOCC3)c3ncc(CNC4CCCCC4)cc3n2)c1` [Compound 28, 3-(7-((cyclohexylamino)methyl)-4-morpholinopyrido[3,2-d]pyrimidin-2-yl)phenol hydrochloride], the pIC50 in [1] is 4.60; in assay [2], 4.70; in assay [10], 6.67; in assay [3] it was 4.60; in assay [11] it was 6.11; in assay [4], 4.70. The pIC50 in assay [5] is 4.82; in assay [6], less than 4.60; in [7] it was 5.00; in [8], less than 4.60; in assay [12], 5.92; in [9], 6.45.
Take `COCc1cn(Cc2cnc3c(N4CCOCC4)nc(-c4ccc(NC(=O)Nc5ccc(CO)cc5)cc4)nc3c2)nn1` [Compound 81, 1-[4-(hydroxymethyl)phenyl]-3-[4-(7-{[4-(methoxymethyl)-1H-1,2,3-triazol-1-yl]methyl}-4-(morpholin-4-yl)pyrido[3,2-d]pyrimidin-2-yl)phenyl]urea]: the pIC50 was 6.52 in [1]; 6.52 in [2]; 7.00 in [3]; 7.00 in assay [4]; 5.15 in assay [5]; 6.30 in assay [6]. The results for the pIC50 in assay [7], in assay [8] and in assay [9] were 5.70, less than 4.60 and 8.52, respectively.
In the case of `OCC(O)c1cnc2c(N3CCOCC3)nc(-c3cccc(O)c3)nc2c1` (stereo not shown) [Compound 22, 1-(2-(3-hydroxyphenyl)-4-morpholinopyrido[3,2-d]pyrimidin-7-yl)ethane-1,2-diol], the negative logarithm of the IC50 (pIC50) was less than 4.60 in [1]; 7.39 in [10]; 5.40 in assay [3]; 6.46 in [11]; 5.30 in assay [4]; less than 4.60 in assay [5]. For the same compound, the pIC50 in [6] was 5.00; in assay [7], 5.40; in [8], less than 4.60; in assay [12], 6.34; in assay [9], 7.09.
As to `C=Cc1cnc2c(N3CCOCC3)nc(-c3cccc(CO)c3)nc2c1` [Compound 17, (3-(4-Morpholino-7-vinylpyrido[3,2-d]pyrimidin-2-yl)phenyl)methanol], the pIC50 in [1] is less than 4.60; in assay [2] it was 5.40; in [3] it was 4.60; in assay [4] it was 5.22; in assay [5], 4.82; in assay [6], less than 4.60. For the same compound, the pIC50 in [7] is 5.30; in [8] it was less than 4.60.
